{"source": "patent US7266458B2", "about": "“BioMAP analysis” (Bioseek, Inc., priority 2000, dated 2007)", "molecules": {"B1": {"name": "IFN-γ: cytokine added to HUVEC (protein)", "chain": "QDPYVKEAENLKKYFNAGHSDVADNGTLFLGILKNWKEESDRKIMQSQIVSFYFKLFKNFKDDQSIQKSVETIKEDMNVKFFNSNKKKRDDFEKLTNYSVTDLNVQRKAIHELIQVMAELSPAAKTGKRKRSQMLFRGRRASQ"}}, "key": {"[1]": {"tested_on": "human umbilical vein endothelial cells (HUVEC)", "assay": "Multiplex assay combinations for distinguishing mechanism of action (single cytokines, activating anti-p55)", "assay_type": "cell-based", "details": "20 μM AA861, 10 μM NHGA", "procedure": "Confluent cultures of HUVEC cells are treated with TNF-α (5 ng/ml), IFN-γ (100 ng/ml), IL-1 (20 ng/ml), the combination of TNF-α+IFN-γ+IL-1, or media (no cytokine) in the presence or absence of neutralizing anti-TNF-α, 20 μM AA861 or 10 μM NHGA. After 24 hours, cultures are washed and evaluated for the cell surface expression of ICAM-1 (1), VCAM-1 (2), E-selectin (3), IL-8 (4), and MIG (5) by cell-based ELISA performed as described in Example 1. A graphical representation of the resulting biomaps derived from the data is shown in FIG. 5, coded as described above.\nConfirmation is performed by evaluating the test agent in assay combinations that include both physiologic and alternative pathway activators. Confluent cultures of HUVEC cells are treated with TNF-α (5 ng/ml), IL-1 (20 ng/ml), an activating antibody against the TNF-α receptor p55, or media. After 24 hours, cultures are washed and evaluated for the cell surface expression of ICAM-1 (1), VCAM-1 (2), E-selectin (3), CD31 (4), and MIG (5) by cell-based ELISA performed as described above. A graphical representation of the resulting biomap, prepared from the data is shown in FIG. 6, coded as described above."}, "[2]": {"tested_on": "human umbilical vein endothelial cells (HUVEC)", "assay": "Optimized inflammatory assay combination (IL-1+TNF-α+IFN-γ) with added agents, cell-based ELISA biomap", "details": "for biomap in the optimized assay combination: 10 μM NHGA, 200 YM PDTC, 9 μM PD098059, 125-500 μM ibuprofen, TNF-α+IFN-γ+IL-1, 24 hours; for reference biomaps compared by pattern similarity and cluster analysis: hierarchical clustering, FIG. 4C", "procedure": "After 24 hours, cultures are washed and evaluated for the cell surface expression of ICAM-1 (1), VCAM-1 (2), E-selectin (3), IL-8 (4), CD31 (5), HLA-DR (6) and MIG (7) by cell-based ELISA performed as described above.\nConfluent cultures of HUVEC cells are treated with TNF-α (5 ng/ml)+IFN-γ (100 ng/ml)+IL-1 (1 ng/ml) in the presence or absence of agents or buffers at the concentrations indicated in Table 1. Compounds are obtained from commercial sources and prepared in a suitable buffer (water, base media, DMSO, methanol or ethanol). After 24 hours, cultures are washed and evaluated for the cell surface expression of ICAM-1 (1), VCAM-1 (2), E-selectin (3), IL-8 (4), CD31 (5), HLA-DR (6) and MIG (7) by cell-based ELISA performed as described above. A color-coded representation of the resulting biomaps developed from the data is shown. […] Control assay combinations for each agent include an appropriate concentration of the diluent buffer.\nReadout patterns are analyzed by hierarchical clustering techniques, and are visualized as a tree diagram in which a) each terminal branch point represents the readout pattern from one assay combination in one experiment; b) the length of the vertical distance from the upper horizontal line (no change and control patterns) to the termini are related to the extent of difference in the readout pattern from the control environment pattern; and c) the distance along, the branches from one terminal pattern value to another reflects the extent of difference between them. Similar patterns are thus clustered together."}, "[3]": {"tested_on": "human umbilical vein endothelial cells (HUVEC)", "assay": "Morpholino antisense in HUVEC, cell surface expression by flow cytometry", "assay_type": "cell-based", "description": "Morpholino phosphorodiamidate (MF) antisense oligonucleotides are used. Other chemical classes of antisense oligonucleotides that can be substituted for morpholinos include but are not limited to phosphorotioate oligonucleotides, N3′-P5′ phosphoramidate oligonucleotides (NP), locked nucleic acid (LNA), 2′-O-methoxyethyl nucleic acid (MOE), 2′-fluoro-arabinonucleic acid (FANA), peptide nucleic acids (PNA) (reviewed in Toulme, Nature Biotech. 19:17, 2001); siRNA (Elbashir et al. (2000) Nature 411:494-498); ribozymes (Kawasaki et al. (2002) Nat. Biotech 20:376-380); standard antisense (Veres et al. (1998) J. Virol. 72:1894-1901). In the present example, antisense oligonucleotides for TNF-R1 (p55) (5′-[…]-3′)(SEQ ID NO:1), and the beta-globin control oligo (5′-[…]-3′)(SEQ ID NO:2) (Gene Tools Inc.) are used. The transfection mixture is prepared by mixing […] of 200 mM EPEI (Ethoxylated PolyEthylenlmine), vortexed, incubated at room temperature for 20 minutes, and then mixed with 3.5 ml of serum-free media to give a final 0.6 μM morpholino concentration.\nHUVEC cells are plated the day before in 24-well plates at 4-6×10e4 cells/well. Cells are washed once with serum-free media and incubated with 0.4 ml of the morpholino transfection mixture at 37° C. for 3 hours. Morpholino is removed, regular media ([…] Growth Media with 2% fetal calf serum, Clonetics) is added and cells allowed to recover overnight. The efficiency of loading of cells with morphino is monitored in cells incubated with a fluorescent morpholino, and is typically essentially 100 percent. HUVEC cells are then treated with either TNF-α (0.5 ng/ml), or IL-1 (1 ng/ml), or media only. After 4 hours, cells are harvested and evaluated for the cell surface expression of ICAM-1 (1), VCAM-1 (2), E-selectin (3), and CD31 (4) by flow cytometry. […] The TNF-R1 antisense specifically blocks induction of ICAM-1 and VCAM-1 by TNF-α, while it has no effect on induction of the same markers by the independent cell surface receptor for IL-1."}, "[4]": {"tested_on": "human umbilical vein endothelial cells (HUVEC)", "assay_type": "cell-based", "design": "key: Active BioMap profiles (indicated as “yes”) were significantly different from the profile obtained with the control vector; BioMAP profiles that were not different from control vector are indicated as “—”", "details": "NFkB Pathway genes; TNF-alpha, IL-1, IFN-gamma individually or in combination; vs control vector, p < 0.05, n = 3", "quoted_text": "High-titer retrovirus preparations are generated by transient transfection of vector construct into a retroviral packaging cell line (AmphoPack-293;Clontech). […] Expression of BioMAP markers (ICAM-1, VCAM, etc.) is measured by a cell-based ELISA technique (Melrose, 1998, supra) that has been optimized such that changes in expression levels of >20% can be routinely detected as statistically significant effects (p<0.05). […] Cells were stained with the NGFr specific monoclonal antibody (Chemicon).\nIn the lower two panels IFN-gamma was added to all samples. Average values (ELISA OD) from triplicate samples are shown, error bars indicate standard deviation. Control is HUVEC transduced with the “empty” vector, which only encodes NGFr marker. Data are from a representative experiment. Results were reproduced in at least two experiments with HUVEC cells from different donors.\nGene over-expression vectors were generated for many members of the NFκB and Jak/STAT pathways, and measured BioMAP profiles in transduced HUVEC cells by a cell-based ELISA technique (Melrose, 1998, supra), in the presence of TNF-alpha, IL-1, IFN-gamma, individually or in combination. […] Average values (ELISA OD) from triplicate samples are shown. Control (_-_) is HUVEC transduced with the “empty” retroviral vector, which only encodes NGFr marker. Data shown are from a representative experiment."}, "[5]": {"tested_on": "human umbilical vein endothelial cells (HUVEC)", "assay": "Apoptosis assay panel (ceramide, TNF-α) with LDH release and cell-based ELISA", "details": "factor added to endothelial cell cultures, vs basal conditions", "source_text": "A panel of assay combinations that reproduces aspects of the response of the endothelial cells to inflammatory processes and stimuli enhancing apoptosis is used.\nRetroviral vectors derived from the MSCV-based pMSCVneo vector (Clontech) are used to express genes in the cultured endothelial cells. […] Test genes are inserted downstream of the MSCV LTR, the marker gene is the enhanced green fluorescent protein (GFP) and the IRES is 600 bp fragment from EMCV virus (Jang, J. Virol. 63:1651, 1989). […] Retroviral vector plasmid DNA is transfected into AmphoPack-293 cells (Clontech) by modified calcium phosphate method according to manufacturer's protocol (MBS transfection kit, Stratagene). Cell supernatants are harvested 48 hours post-transfection, filtered to remove cell debris (0.45 pm) and transferred onto exponentially growing HUVEC cells. DEAE dextran (conc lopg/ml) is added to facilitate vector transduction. After a 5-8 hour incubation period viral supernatants are removed and cells cultured for an additional 40 hours. Gene transfer efficiency is determined by FACS, and is typically ≧80 percent. […] After 24 hours, transduced cells are evaluated for the surface expression ICAM-1 (1), VCAM-1 (2), and MIG (3) by cell-based ELISA for biomap analysis. For the expanded biomap, cell supernatants at 24 hours are collected and analyzed for the presence of LDH (4)."}, "[6]": {"tested_on": "human umbilical vein endothelial cells (HUVEC)", "assay": "HUVEC treated with proinflammatory cytokines, readout parameters by cell-based ELISA", "details": "HUVEC cultured with cytokine(s) 24 hours, vs basal medium", "quoted_text": "Primary human umbilical vein endothelial cells (HUVEC) are used. […] 2×10^4 cells/ml are cultured to confluence in EGM-2 (Clonetics).\nAfter 24 hours, cultures are washed and evaluated for the presence of the parameters ICAM-1 (1), VCAM-1 (2), E-selectin (3), IL-8 (4), CD31 (5), HLA-DR (6) and MIG (7) by cell-based ELISA as described (Melrose, J. Immunol. 161:2457, 1998). For this, plates are blocked with 1% Blotto for 1 hr, and treated with primary antibodies (obtained from Pharmingen and Becton Dickinson) at 1 ng/ml for 2 hr. After washing, secondary peroxidase-conjugated anti-mouse IgG antibody (Promega) at 1:2500 is applied for 45 min. After washing, TMB substrate (Kierkegaard & Perry) is added and color developed. Development is stopped by addition of H2SO4 and the absorbance at 450 nm (subtracting the background absorbance at 600 nm) is read with a Molecular Dynamics plate reader. The relative expression levels of each parameter are indicated by the OD at 450 nm shown along the y-axis. The mean +/−SD from triplicate samples is shown.\nAfter 24 hours, cultures are washed and evaluated for the presence of the parameters ICAM-1 (1), VCAM-1 (2), E-selectin (3), IL-8 (4), CD31 (5), HLA-DR (6) and MIG (7) by cell-based ELISA performed as described above, and are reported as the OD at 450 nm. The mean +/−SD from triplicate samples are shown. * indicates p<0.05 comparing results obtained with the two separate conditions."}, "[7]": {"details": "0.6 μM morpholino, IL-1 1 ng/ml, 4 hours"}, "[8]": {"details": "0.6 μM morpholino, TNF-α 0.5 ng/ml, 4 hours"}}, "data": [{"molecule": "CC(Cc1ccc(O)c(O)c1)C(C)Cc1ccc(O)c(O)c1", "note": "(stereo not drawn) [NHGA, nordihydroguaiaretic acid]", "values": [{"measurement": "cytokine signaling pathways targeted in the panel", "setting": "[1]", "value": "target multiple cytokine signaling pathways"}, {"measurement": "biomap in the optimized assay combination", "setting": "[2]", "value": "altered biomaps"}, {"measurement": "reference biomaps compared by pattern similarity and cluster analysis", "setting": "[2]", "value": "have similar reference biomaps and cluster together"}]}, {"molecule": "COc1cccc(-c2cc(=O)c3ccccc3o2)c1N", "note": "[PD098059]", "values": [{"measurement": "biomap in the optimized assay combination", "setting": "[2]", "value": "altered biomaps"}, {"measurement": "reference biomaps compared by pattern similarity and cluster analysis", "setting": "[2]", "value": "remain in the same cluster"}]}, {"molecule": "S=C(S)N1CCCC1", "note": "[PDTC, pyrrolidine dithiocarbamate]", "values": [{"measurement": "biomap in the optimized assay combination", "setting": "[2]", "value": "altered biomaps"}, {"measurement": "reference biomaps compared by pattern similarity and cluster analysis", "setting": "[2]", "value": "have similar reference biomaps and cluster together"}]}, {"molecule": "O=C(NC1=CC(=O)c2ccccc2C1=O)c1ccccc1", "note": "[PPM-18]", "values": [{"measurement": "reference biomaps compared by pattern similarity and cluster analysis", "setting": "[2]", "value": "have similar reference biomaps and cluster together"}]}, {"molecule": "O=c1cc(-c2ccc(O)cc2)oc2cc(O)cc(O)c12", "note": "[apigenin]", "values": [{"measurement": "reference biomaps compared by pattern similarity and cluster analysis", "setting": "[2]", "value": "have similar reference biomaps and cluster together"}]}, {"molecule": "CC(C)Cc1ccc(C(C)C(=O)O)cc1", "note": "(stereo not drawn) [ibuprofen]", "values": [{"measurement": "biomap in the optimized assay combination", "setting": "[2]", "value": "visually different representations of biomaps"}]}, {"molecule": "C[C@]12C=CC(=O)C=C1CC[C@@H]1[C@@H]2[C@@H](O)C[C@@]2(C)[C@H]1CC[C@]2(O)C(=O)CO", "note": "[prednisolone]", "values": [{"measurement": "reference biomaps compared by pattern similarity and cluster analysis", "setting": "[2]", "value": "related reference biomaps that are distinct from those of NFκB pathway inhibitors"}]}, {"molecule": "TNF-R1 antisense: morpholino antisense oligonucleotide for TNF-R1 (p55), 5′-AGGTCAGGCACGGTGGAGAGGC-3′ (SEQ ID NO:1) (all phosphorodiamidate morpholino (PMO))", "values": [{"measurement": "biomap vs control oligo biomap upon treatment with TNF-α", "setting": "[3]", "value": "altered biomap"}, {"measurement": "induction of ICAM-1 by IL-1", "setting": "[3]; [7]", "value": "no effect"}, {"measurement": "induction of VCAM-1 by IL-1", "setting": "[3]; [7]", "value": "no effect"}, {"measurement": "induction of ICAM-1 by TNF-α", "setting": "[3]; [8]", "value": "blocks"}, {"measurement": "induction of VCAM-1 by TNF-α", "setting": "[3]; [8]", "value": "blocks"}]}, {"molecule": "TNFA", "values": [{"measurement": "BioMAP readout", "setting": "[4]", "value": "yes"}]}, {"molecule": "ceramide", "values": [{"measurement": "cell damage as release of cytoplasmic lactate dehydrogenase into the supernatant", "setting": "[5]", "value": "enhanced"}]}, {"molecule": "B1", "values": [{"measurement": "ICAM-1 level", "setting": "[6]; TNF-α 5 ng/ml, IFN-γ 100 ng/ml, IL-1 1 ng/ml", "value": "increased"}, {"measurement": "HLA-DR level", "setting": "[6]", "value": "increased"}, {"measurement": "MIG level", "setting": "[6]", "value": "increased"}]}]}
